The source of these data is US12503454B2, “LPA receptor antagonists and uses thereof” (Gilead Sciences, Inc., priority 2021, dated 2025).

This assay has as its target human LPAR1 (Homo sapiens, UniProt Q92633). Nature of the assay: LPAR1 intracellular calcium mobilization assay (antagonist mode, FLIPR). Conditions: CHO-K1 EDG2 cells expressing human LPAR1; test compound 0.5 nM to 10 μM pre-incubated 60 minutes at 37° C., then LPA 18:2 at EC80 concentration (100 nM). It counts as cell-based. As for the experimental part:
In vitro LPAR1 activity was measured in an intracellular calcium mobilization assay. CHO-K1 EDG2 cells (DiscoverX cat #93-0644C2) expressing human LPAR1 (NM_001401.3) were seeded in a total volume of 25 μL of Dulbecco's Modification of Eagle's Medium (DMEM) with 10% Fetal Bovine Serum, 1× PenStrepGlutamine, 300 μg/ml Hygromycin, and 800 μg/ml G418 into 384-well tissue culture plate (Grenier #781091) at 15,000 cells/well and incubated at 37° C. overnight. Prior to testing, 25 μL Calcium Loading Dye Component A (FLIPR Calcium 6 Assay Kit Molecular Device # R8190) and 2.5 mM Probenecid (Invitrogen # P36400, prepared fresh) in Hank's Balanced Salt Solution (Corning #21-023-CV), 20 mM HEPES (Corning #25-060-CI), 0.1% Bovine Serum Albumin (Sigma-Aldrich # A7906-500G) was add to the cells for 60 minutes at 37° C.
Agonist dose curves of LPA 18:2 (Avanti Polar Lipids cat #857138, 0.5 nM to 10 μM) were recorded to determine the LPA 18:2 EC80 for subsequent antagonist assays. For agonist dose curves, cells were removed from the incubator 2 hours after dye loading and transferred to the FLIPR Tetra instrument (Molecular Devices, San Jose, CA). Calcium mobilization was monitored for 5 min and 10 μL 6×LPA in HBSS/20 mM Hepes/0.1% bovine serum albumin (BSA) was added to the cells 5 seconds into the assay.
To determine the LPAR1 antagonist activity of test compounds, cells were pre-incubated with test compound at a dose range of 0.5 nM to 10 μM, followed by LPA at EC80 concentration (100 nM). After dye loading, cells were removed from the incubator and 0.3 μL of 200× antagonist was added. Cells were incubated for 60 minutes at 37° C. Antagonist activity was measured on a FLIPR Tetra. Calcium mobilization was monitored for 3.5 minutes and 10 μL 6×EC80 LPA in HBSS, 20 mM HEPES, and 0.1% BSA was added to the cells 5 seconds into the assay. Signal amplitude (Maximum minus minimum) values were plotted against log10 of antagonist concentration using Dose Response Tool (Gilead Sciences Inc.) to determine […].
To assess the antagonistic potential of exemplified compounds […] were determined for Compounds 1 to 66 in the LPAR1 calcium mobilization assay. The compound numbers correspond to the compound numbers in Examples 1 to 18. N/A=not available.
(Calcium assays in cells follow changes in intracellular calcium, usually with a dye or a luminescent sensor.)

human LPAR1, sequence (Q92633 whole entry): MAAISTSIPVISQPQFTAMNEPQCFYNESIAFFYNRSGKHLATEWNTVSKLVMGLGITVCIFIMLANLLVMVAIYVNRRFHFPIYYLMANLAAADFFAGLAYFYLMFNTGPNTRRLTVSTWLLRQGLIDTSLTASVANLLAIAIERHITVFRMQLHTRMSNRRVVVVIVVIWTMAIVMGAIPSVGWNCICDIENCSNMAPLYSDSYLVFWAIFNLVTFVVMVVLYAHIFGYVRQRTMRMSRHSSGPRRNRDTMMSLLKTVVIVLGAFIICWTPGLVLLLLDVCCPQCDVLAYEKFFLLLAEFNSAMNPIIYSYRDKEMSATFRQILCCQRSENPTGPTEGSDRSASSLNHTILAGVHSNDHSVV

As usually defined, the EC50 is the midpoint of the concentration-response curve. For the molecule `C[C@@H](OC(=O)Nc1c(-c2ccc(C(=O)Nc3cnc(C(F)(F)F)nc3)cn2)nnn1C)c1cc(F)cnc1F` [Compound 24, (R)-1-(2,5-difluoro-pyridin-3-yl)ethyl (1-methyl-4-(5-((2-(trifluorometh-yl)pyrimidin-5-yl)-carbamoyl)pyridin-2-yl)-1H-1,2,3-triazol-5-yl)-carbamate], the EC50 was determined as 222 nM.
In the case of `C[C@@H](OC(=O)Nc1c(-c2ccc(C(=O)Nc3ccc(C(F)(F)F)nc3)cn2)nnn1C)c1cc(F)cnc1F` [Compound 25, (R)-1-(2,5-difluoro-pyridin-3-yl)ethyl (1-methyl-4-(5-((6-(trifluoromethyl)-pyridin-3-yl)-carbamoyl)pyridin-2-yl)-1H-1,2,3-triazol-5-yl)-carbamate], the EC50 amounted to 364 nM.
The same measure for `C[C@@H](OC(=O)Nc1c(-c2ccc(C(=O)NC34CC(c5ccccc5)(C3)C4)cn2)nnn1C)c1cc(F)cnc1F` [Compound 26]: < 4.6 nM.
`C[C@@H](OC(=O)Nc1c(-c2ccc(C(=O)Nc3ccnc(F)c3)cn2)nnn1C)c1cc(F)cnc1F` [Compound 27, (R)-1-(2,5-difluoro-pyridin-3-yl)ethyl (4-(5-((2-fluoro-pyridin-4-yl)-carbamoyl)pyridin-2-yl)-1-methyl-1H-1,2,3-triazol-5-yl)-carbamate]: the EC50 is 42.8 nM.
The same measure for `C[C@@H](OC(=O)Nc1c(-c2ccc(C(=O)Nc3ccc(C4CC4)nc3)cn2)nnn1C)c1cc(F)cnc1F` [Compound 28, (R)-1-(2,5-difluoro-pyridin-3-yl)ethyl (4-(5-((6-cyclo-propylpyridin-3-yl)carbamoyl)-pyridin-2-yl)-1-methyl-1H-1,2,3-triazol-5-yl)-carbamate]: 427 nM; for `C[C@@H](OC(=O)Nc1c(-c2ccc(C(=O)NC34CC(S(C)(=O)=O)(C3)C4)cn2)nnn1C)c1cc(F)cnc1F` [Compound 29, (R)-1-(2,5-difluoro-pyridin-3-yl)ethyl (1-methyl-4-(5-((3-(methylsulfon-yl)bicyclo[1.1.1]-pentan-1-yl)carbam-oyl)pyridin-2-yl)-1H-1,2,3-triazol-5-yl)carbamate]: 3420 nM; for `C[C@@H](OC(=O)Nc1c(-c2ccc(C(=O)Nc3cccc(C(F)(F)F)c3)cn2)nnn1C)c1cc(F)cnc1F` [Compound 30, (R)-1-(2,5-difluoro-pyridin-3-yl)ethyl (1-methyl-4-(5-((3-(trifluoromethyl)-phenyl)carbam-oyl)pyridin-2-yl)-1H-1,2,3-triazol-5-yl)carbamate]: 93 nM.
`C[C@@H](OC(=O)Nc1c(-c2ccc(C(=O)Nc3ccnc(C(F)F)c3)cn2)nnn1C)c1cc(F)cnc1F` [Compound 31, (R)-1-(2,5-difluoro-pyridin-3-yl)ethyl (4-(5-((2-(difluoro-methyl)pyridin-4-yl)carbamoyl)-pyridin-2-yl)-1-methyl-1H-1,2,3-triazol-5-yl)-carbamate]: the 50% effective concentration (EC50) came to 14.9 nM.
For the molecule `COc1cc(NC(=O)c2ccc(-c3nnn(C)c3NC(=O)O[C@H](C)c3cc(F)cnc3F)nc2)ccn1` [Compound 32, (R)-1-(2,5-difluoro-pyridin-3-yl)ethyl (4-(5-((2-methoxy-pyridin-4-yl)-carbamoyl)pyridin-2-yl)-1-methyl-1H-1,2,3-triazol-5-yl)-carbamate], the EC50 is 55.9 nM.
Regarding `C[C@@H](OC(=O)Nc1c(-c2ccc(C(=O)Nc3ccnc(OC(F)F)c3)cn2)nnn1C)c1cc(F)cnc1F` [Compound 33, (R)-1-(2,5-difluoro-pyridin-3-yl)ethyl (4-(5-((2-(difluoro-methoxy)pyridin-4-yl)carbamoyl)-pyridin-2-yl)-1-methyl-1H-1,2,3-triazol-5-yl)-carbamate], the EC50 is 273 nM.
For `C[C@@H](OC(=O)Nc1c(-c2ccc(C(=O)Nc3ccc(C#N)c(C(F)(F)F)c3)cn2)nnn1C)c1cc(F)cnc1F` [Compound 34, (R)-1-(2,5-difluoro-pyridin-3-yl)ethyl (4-(5-((4-cyano-3-(trifluoromethyl)-phenyl)carbamoyl)-pyridin-2-yl)-1-methyl-1H-1,2,3-triazol-5-yl)-carbamate] the value was 47.5 nM; for `C[C@@H](OC(=O)Nc1c(-c2ccc(C(=O)Nc3ccnc(Cl)c3F)cn2)nnn1C)c1cc(F)cnc1F` [Compound 35, (R)-1-(2,5-difluoro-pyridin-3-yl)ethyl (4-(5-((2-chloro-3-fluoropyridin-4-yl)-carbamoyl)-pyridin-2-yl)-1-methyl-1H-1,2,3-triazol-5-yl)-carbamate], 140 nM.
The same measure for `C[C@@H](OC(=O)Nc1c(-c2ccc(C(=O)Nc3ccc(-c4ccccc4)cc3)cn2)nnn1C)c1cc(F)cnc1F` [Compound 36, (R)-1-(2,5-difluoro-pyridin-3-yl)ethyl (4-(5-([1,1′-biphen-yl]-4-ylcarbamoyl)-pyridin-2-yl)-1-methyl-1H-1,2,3-triazol-5-yl)-carbamate]: 15.6 nM.
With `C[C@@H](OC(=O)Nc1c(-c2ccc(C(=O)N[C@@H]3C[C@H]3c3ccccc3)cn2)nnn1C)c1cc(F)cnc1F` [Compound 37, (R)-1-(2,5-difluoro-pyridin-3-yl)ethyl (1-methyl-4-(5-(((1R,2S)-2-phenyl-cyclopropyl)carbam-oyl)pyridin-2-yl)-1H-1,2,3-triazol-5-yl)carbamate], the half-maximal effective concentration (EC50) stood at 196 nM.
As for `C[C@@H](OC(=O)Nc1c(-c2ccc(C(=O)Nc3cnnc(Cl)c3)cn2)nnn1C)c1cc(F)cnc1F` [Compound 38, (R)-1-(2,5-difluoro-pyridin-3-yl)ethyl (4-(5-((6-chloro-pyridazin-4-yl)-carbamoyl)pyridin-2-yl)-1-methyl-1H-1,2,3-triazol-5-yl)-carbamate], the EC50 is 24.4 nM.
The same measure for `Cc1nnc(-c2ccc(NC(=O)c3ccc(-c4nnn(C)c4NC(=O)O[C@H](C)c4cc(F)cnc4F)nc3)cc2)o1` [Compound 39, (R)-1-(2,5-difluoro-pyridin-3-yl)ethyl (1-methyl-4-(5-((4-(5-methyl-1,3,4-oxadiazol-2-yl)phenyl)-carbamoyl)-pyridin-2-yl)-1H-1,2,3-triazol-5-yl)carbamate]: 9.1 nM.
For `C[C@@H](OC(=O)Nc1c(-c2ccc(C(=O)Nc3ccc(-c4cccnc4)cc3)cn2)nnn1C)c1cc(F)cnc1F` [Compound 40, (R)-1-(2,5-difluoro-pyridin-3-yl)ethyl (1-methyl-4-(5-((4-(pyridin-3-yl)phenyl)carbam-oyl)pyridin-2-yl)-1H-1,2,3-triazol-5-yl)carbamate] the value was 7.6 nM; for `C[C@@H](OC(=O)Nc1c(-c2ccc(C(=O)Nc3ccc(-c4ccncc4)cc3)cn2)nnn1C)c1cc(F)cnc1F` [Compound 41, (R)-1-(2,5-difluoro-pyridin-3-yl)ethyl (1-methyl-4-(5-((4-(pyridin-4-yl)phenyl)carbam-oyl)pyridin-2-yl)-1H-1,2,3-triazol-5-yl)carbamate], 61 nM.
The same measure for `C[C@@H](OC(=O)Nc1c(-c2ccc(C(=O)Nc3cnc(C(F)(F)F)s3)cn2)nnn1C)c1cc(F)cnc1F` [Compound 42, (R)-1-(2,5-difluoro-pyridin-3-yl)ethyl (1-methyl-4-(5-((2-(trifluoromethyl)-thiazol-5-yl)-carbamoyl)pyridin-2-yl)-1H-1,2,3-triazol-5-yl)-carbamate]: 10.1 nM.
